Experimental data: US8318186B2, “Use of at least a fatty ester for preparing a composition designed to inhibit 5-α-reductase activity, in pharmacology, in particular dermatology, in cosmetics and as food additive” (Laboratoires Expanscience, priority 2000, dated 2012)
“And” between values parts separate entries of the source, which are not always exact repeats. Equal entries are not always repeated. Marks after values point to notes of the source that are not given here.

System: 5α-reductase
Assay: 5α-reductase activity, conversion of testosterone to 5α-dihydrotestosterone in normal human dermal fibroblast cultures (Example 3)
Assay type: cell-based
Conditions: for 5α-reductase activity as percentage of the DMSO group / 5α-DHT formed per culture well, mean / 5α-DHT formed per culture well, single well: 22 hours of incubation; for 5α-DHT formed per culture well, mean / 5α-DHT formed per culture well, single well: DMSO 1% (v/v); for 5α-DHT formed per culture well, mean: mean of triplicate; for 5α-DHT formed per culture well, single well: single replicate; for inhibition of the 5α-reductase activity: text of Example 3
Method: It is proposed to evaluate the effect of the products such as methyl oleate (Sigma commercial product, 99% purity), of the methyl esters of avocado and of a Serenoa Repens extract chosen as reference on the 5α-reductase activity. An in vitro model of normal human dermal fibroblast cultures was selected.
The fibroblast culture medium (FCM) consisted of MEM/M199 (3:1, v/v) supplemented with penicillin (50 IU/ml), streptomycin (50 μg/ml), sodium bicarbonate (0.2%, w/v) and FCS (10%, v/v).
The assay system consisted of normal human dermal fibroblasts cultured as a monolayer. The fibroblasts were isolated from a residue from abdominal plastic surgery performed on a person (subject BIOPREDIC No. I0013). The cells were used at the fifth passage; they were cultured until the monolayers were confluent in FCM medium at 37° C. in a humid atmosphere containing 5% CO2.
The fibroblast incubation medium (FIM) consisted of FCM supplemented with tritiated testosterone (1.6×10^−7 M, that is 6.32 μCi/ml) and nonradiolabeled testosterone (3.84×10^−6 M)
The test products and finasteride were taken up in DMSO before being diluted in the incubation medium. The final concentration of DMSO was kept constant and equal to 1% (v/v) in each dilution of test products and reference products.
The fibroblast cultures were preincubated in the presence of the test products or of the reference product for 2 hours before adding the substrate, testosterone. For this step, the test products and the reference product were prepared in the FCM medium.
After preincubation, the fibroblast cultures were incubated in the presence of the test products or of the reference product prepared in the FIM medium for 22 hours at 37° C. in a humid atmosphere containing 5% CO2. Control cultures were incubated in the FIM medium in the absence of test products and of reference product. “DMSO control” cultures were incubated in the FIM medium containing 1% (v/v) of DMSO.
Each experimental condition was tested in triplicate.
After the incubation period, the cells were subjected to the action of ultrasound in the FIM medium. The cellular lysates thus obtained were extracted with dichloromethane. After evaporation, the dry residues were taken up in methanol and were deposited on 60F254 silica plates (MERCK, reference 5554).
Nonradiolabeled standards, testosterone, 5α-dihydro-testosterone and androstenedione, were deposited on each of the plates.
The migration solvent was a mixture of dichloromethane and ether (7:3, v/v) At the end of the migration, the silica plates were read using a BERTHOLD radioactivity scanner.
The nonradiolabeled standards were visualized by spraying 5% sulfuric acid (v/v) over the chromatography plates which were then heated at 100° C. for 10 minutes.
Comparison of the Rf values (relative retardation factor) determined for the standards with those obtained for the various radioactive metabolites allowed the identification of the latter.
The metabolizing of testosterone to 5α-dihydro-testosterone under the various experimental conditions was calculated: the results (areas of the 5α-dihydrotestosterone peaks counted by the BERTHOLD scanner) were expressed in pmol of 5α-dihydro-testosterone formed per culture well. They were also expressed as a percentage of the 5α-reductase activity present in the “DMSO control” group.
The groups of data (control group and treated groups) were treated by a one-way analysis of variance (ANOVA 1, p<0.05), followed by a DUNNETT's test (p<0.05). The effect of the test products and of the reference product was compared with the “DMSO control” group. The effects of the test products were compared to each other by a two-way analysis of variance (ANOVA 2, p<0.05, factor 1=concentration and factor 2=treatment).

For `CCCCCCCC/C=C\CCCCCCCC(=O)OC` [Methyl oleate, methyl oleate], the “5α-reductase activity as percentage of the DMSO group” value (shortened to “5α-reductase activity as percentage”) (1 μg/ml) was 76 percentage of the DMSO group, the “5α-DHT formed per culture well, mean” value (1 μg/ml) was 6.48* +/− pmol of 5α-DHT formed/culture well and the “5α-DHT formed per culture well, single well” value (1 μg/ml) was 7.12 pmol of 5α-DHT formed/culture well and 6.24 pmol of 5α-DHT formed/culture well and 6.08 pmol of 5α-DHT formed/culture well. For the same molecule, the “inhibition of the 5α-reductase activity” value (1 μg/ml) was 24%, the “5α-reductase activity as percentage” value (10 μg/ml) was 62 percentage of the DMSO group and the “5α-DHT formed per culture well, mean” value (10 μg/ml) was 5.32* +/− pmol of 5α-DHT formed/culture well. The “5α-DHT formed per culture well, single well” value (10 μg/ml) was 3.00 pmol of 5α-DHT formed/culture well and 7.04 pmol of 5α-DHT formed/culture well and 5.92 pmol of 5α-DHT formed/culture well, the “inhibition of the 5α-reductase activity” value (10 μg/ml) was 38% and the “5α-reductase activity as percentage” value (100 μg/ml) was 59 percentage of the DMSO group. The “5α-DHT formed per culture well, mean” value (100 μg/ml) was 5.05* +/− pmol of 5α-DHT formed/culture well, the “5α-DHT formed per culture well, single well” value (100 μg/ml) was 5.44 pmol of 5α-DHT formed/culture well and 5.12 pmol of 5α-DHT formed/culture well and 4.60 pmol of 5α-DHT formed/culture well and the “inhibition of the 5α-reductase activity” value (100 μg/ml) was 41%. The “5α-reductase inhibitory activity, in words” value (tested at 10 and 100 μg/ml, compared with Serenoa repens extract) was “significantly higher than that of the Serenoa repens extract”.
